Experimental data as given in US12116564B2, “Cells expressing recombinant growth factor receptors” (INSTIL BIO (UK) LIMITED, priority 2015, dated 2024).

T1: TpoR F104S (Homo sapiens, UniProt P40238, F104S)
T1 sequence (P40238 26-635 F104S): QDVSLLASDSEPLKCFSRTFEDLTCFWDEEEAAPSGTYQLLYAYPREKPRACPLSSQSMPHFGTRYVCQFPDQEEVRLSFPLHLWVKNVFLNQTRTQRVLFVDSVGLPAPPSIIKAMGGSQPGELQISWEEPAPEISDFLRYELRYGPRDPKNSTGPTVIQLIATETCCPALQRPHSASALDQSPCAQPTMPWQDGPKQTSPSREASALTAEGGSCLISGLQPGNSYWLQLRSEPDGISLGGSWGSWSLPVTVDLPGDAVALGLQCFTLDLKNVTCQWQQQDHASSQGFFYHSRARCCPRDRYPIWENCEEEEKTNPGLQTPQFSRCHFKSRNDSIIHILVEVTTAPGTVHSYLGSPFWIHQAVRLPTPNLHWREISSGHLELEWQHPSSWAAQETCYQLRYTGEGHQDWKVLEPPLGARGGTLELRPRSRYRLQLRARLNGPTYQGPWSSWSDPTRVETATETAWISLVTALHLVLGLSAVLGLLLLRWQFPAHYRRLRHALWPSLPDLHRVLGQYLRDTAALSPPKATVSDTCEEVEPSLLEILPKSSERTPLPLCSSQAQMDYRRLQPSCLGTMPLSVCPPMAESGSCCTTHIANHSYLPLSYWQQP

B1: Tpo: recombinant human Tpo (Miltenyi Biotec), native ligand of the thrombopoietin receptor (protein)
chain: SPAPPACDLRVLSKLLRDSHVLHSRLSQCPEVHPLPTPVLLPAVDFSLGEWKTQMEETKAQDILGAVTLLLEGVMAARGQLGPTCLSSLLGQLSGQVRLLLGALQSLLGTQLPPQGRTTAHKDPNAIFLSFQHLLRGKVRFLMLVGGSTLCVRRAPPTTAVPSRTSLVLTLNEL

How the values were obtained:
[1] = 73 healthy volunteers, higher doses; cited from earlier work
[2] = tested on: WT TpoR transduced primary human T-cells; assay type: cell-based; conditions: for response in relative increase of cell number as concentration increases: varying concentrations, three and five days
Protocol: Transduced primary human T-cells were incubated with the indicated concentrations of each drug and cells counted after three and five days
(§1) Following expansion cells were washed excessively to remove any exogenous IL2 and plated into 96-well U-bottom plates. Cells were supplemented with IL2 (Proleukin), recombinant human Tpo (Miltenyi Biotec) or Eltrombopag (Stratech Scientific, Suffolk, UK). At various time points thereafter cells were either stained with a 1:400 dilution of eFlor-450 fixable viability dye (eBioscience, UK) and counted directly from the wells using a MACSQuant Cytometer, or were stained with viability dye plus phycoerythrin conjugated anti-CD110 antibodies (Miltenyi Biotec, UK) and analysed using a MACSQuant cytomter. Cell viability and/or transduction level was then analysed using MACSQuantify software (Miltenyi Biotec, UK).
After three and five days the cells were stained with EFlor-450 Live/dead fixable viability dye and the cells in each well counted by flow cytometry.

[3] = tested on: melanoma TIL transduced with WT TpoR; test: Enrichment of TpoR+ cells in WT TpoR transduced melanoma tumour infiltrating lymphocytes; assay type: cell-based, human; conditions: for TpoR+ cells after enrichment: from 65% TpoR+
Protocol: FIG. 12—Analysis of WT TpoR activity in Melanoma Tumour Infiltrating Lymphocytes. Tumour infiltrating lymphocytes (TIL) established from a cutaneous melanoma lesion were lentivirally transduced with the WT TpoR rGFR. The TIL were incubated in the presence of 200 IU/ml IL2 or the indicated concentrations of Tpo or Eltrombopag. At days 2 and 5 cells were removed, stained with PE conjugated anti-CD110 antibodies and analysed using a MACSQuant analyser.
Next we aimed to determine whether the WT TpoR was functionally active in Tumour Infiltrating Lymphocytes (TIL). It was possible that the high doses of IL2 used to generate TIL cultures could make them more dependent on IL2 for subsequent growth. To this end we added lentiviral supernatants to melanoma TIL cultures. Cells were transduced to 65% (FIG. 12). The TILs were cultured in the presence of 200 IU/ml IL-2, or Eltrombopag or Tpo. Cells were analysed for TpoR expression at days 2 and 5. […] In contrast there was no enrichment of TpoR+ cells in the presence of IL2 supporting the notion that this is driven by signals through the TpoR.

[4] = tested on: primary human T-cells harbouring the mt TpoR; test: Enrichment of TpoR+ cells (anti-CD110 flow cytometry), mt (truncated) TpoR T-cells diluted to 20% transduction; assay type: cell-based; conditions: for TpoR positive cells after enrichment: start 20% transduced, up to nine days
Protocol: as §1, with “FIG. 6—Enrichment kinetics of modular T-cell growth signal receptor engineered T-cells to varying concentrations of IL-2, Eltrombopag (Elt) or thrombopoietin (Tpo). Transduced primary human T-cells were diluted with non-transduced cells to a 20% transduction level. Cells were incubated with the indicated concentrations of each drug and the enrichment of each population established at the indicated time points by staining cells with anti-CD110-PE antibodies. Following expansion” for “Following expansion”, “Biotec, UK). Additional cells were diluted with non-transduced cells to achieve a population with 20% transduction efficiency. […] After three, six and nine days the cells were stained with anti-CD110 (TpoR) antibodies and analysed by flow cytometry.” for “Biotec, UK).”

[5] = tested on: primary human T-cells harbouring the WT TpoR; test: Enrichment of TpoR+ cells (anti-CD110 flow cytometry), WT TpoR T-cells diluted to 20% transduction; assay type: cell-based; conditions: for TpoR positive cells after enrichment: start 20% transduced, up to nine days
Protocol: as §1, with “FIG. 6—Enrichment kinetics of modular T-cell growth signal receptor engineered T-cells to varying concentrations of IL-2, Eltrombopag (Elt) or thrombopoietin (Tpo). Transduced primary human T-cells were diluted with non-transduced cells to a 20% transduction level. Cells were incubated with the indicated concentrations of each drug and the enrichment of each population established at the indicated time points by staining cells with anti-CD110-PE antibodies. Following expansion” for “Following expansion”, “Biotec, UK). Additional cells were diluted with non-transduced cells to achieve a population with 20% transduction efficiency. […] After three, six and nine days the cells were stained with anti-CD110 (TpoR) antibodies and analysed by flow cytometry.” for “Biotec, UK).”

[6] = tested on: Ba/F3 cells transduced with TpoR-PrIR variant; test: Enrichment of transduced Ba/F3 cells, TpoR-PrIR; assay type: cell-based, murine; conditions: 0.5 μM Eltrombopag or 1.0 μM Tpo; days 3, 5 and 7; compared with the other variants
Protocol: (§2) FIG. 10—Analysis of rGFR variants in Ba/F3 cells. The IL3 dependent cell line Ba/F3 was transduced with the indicated rGFR variants and incubated in the presence of 1 μM Tpo, 0.5 μM Eltrombopag or 0.5 ng/ml IL3. Cells were taken at days 3, 5 and 7 stained with PE conjugated anti-CD110 antibodies and analysed using a MACSQuant analyser.
(§3) To determine whether the new variants generated were functionally active we transduced the IL3 dependent cell line Ba/F3 and incubated the cells with either IL-3, 0.5 μM Eltrombopag or 1.0 μM Tpo and measured the proportion of cells expressing the indicated TpoR at days 3, 5 and 7.

[7] = tested on: Ba/F3 cells transduced with F104S TpoR variant; test: Enrichment of transduced Ba/F3 cells, F104S TpoR; assay type: cell-based, murine; conditions: 0.5 μM Eltrombopag or 1.0 μM Tpo; days 3, 5 and 7
Protocol: as §2, §3

[8] = tested on: Ba/F3 cells transduced with TpoR-HGHR variant; test: Enrichment of transduced Ba/F3 cells, TpoR-HGHR; assay type: cell-based, murine; conditions: 0.5 μM Eltrombopag or 1.0 μM Tpo; days 3, 5 and 7
Protocol: as §2, §3

TpoR F104S = biological target: T1, TpoR F104S; conditions: Fox et al 2010; cited from earlier work
[9] = tested on: Ba/F3 cells transduced with WT TpoR; test: Enrichment of transduced Ba/F3 cells, WT TpoR; assay type: cell-based, murine; conditions: 0.5 μM Eltrombopag or 1.0 μM Tpo; days 3, 5 and 7
Protocol: as §2, §3

Molecule | tolerability [1] | concentration at which responses (relative increase of cell number) are maximal ([2]; 94% transduced, 5×10^4 cells/well, counted after three and five days) | toxicity to the T-cells ([2]; concentrations above around 0.1 μM) | TpoR+ cells after enrichment ([3]; high (1.0 μM) Eltrombopag) [%] | TpoR+ cells after enrichment ([3]; low (0.1 μM) Eltrombopag) [%] | TpoR positive cells after enrichment ([4]; 0.5 μM Eltrombopag) [%] | TpoR positive cells after enrichment ([5]; 0.5 μM Eltrombopag) [%] | response in relative increase of cell number as concentration increases [2] | enrichment of TpoR+ cells ([3]; 200 IU/ml IL-2) | enrichment of TpoR positive cells over time ([4]; 100 IU/ml IL-2 alone) | enrichment of TpoR positive cells over time ([5]; 100 IU/ml IL-2 alone) | functional activity (enrichment of transduced cells) [6] | enrichment of transduced cells [7] | maximal response compared with Eltrombopag or IL-2 ([2]; possibly optimal concentrations not used) | enrichment of TpoR+ T-cells ([3]; high (1 μM) Tpo) | TpoR positive cells after enrichment ([4]; 10.0 μM Tpo) [%] | TpoR positive cells after enrichment ([5]; 10.0 μM Tpo) [%] | functional activity (enrichment of transduced cells) [8] | effect of the F104S extracellular point mutation on responsiveness to the ligand (TpoR F104S) | enrichment of transduced cells [9]
CC1=NN(c2ccc(C)c(C)c2)C(=O)/C1=N\Nc1cccc(-c2cccc(C(=O)O)c2)c1O [Eltrombopag] | without tolerability problems | around 0.1 μM | becoming toxic | 90 | 89 | 66.6 | 83.5 |  |  |  |  |  |  |  |  |  |  |  |  | 
IL-2: IL2 (Proleukin), cytokine normally required for optimal T-cell growth |  |  |  |  |  |  |  | dose dependent responses | no enrichment | did not become enriched over time | did not become enriched over time |  |  |  |  |  |  |  |  | 
B1 |  |  |  |  |  |  |  | dose dependent responses |  |  |  | less robust responses | much reduced activity | did not see maximal responses to Tpo comparable to those seen with Eltrombopag or IL-2 | able to induce enrichment | 77.9 | 87.5 | functional activity | prevent responsiveness | able to support the enrichment of transduced cells
